In patent publication US11325940B2, “Certain chemical entities, compositions, and methods” (NeuPharma, Inc., priority 2012, dated 2022):

tested on: A549 cells; experiment: Inhibition of cancer cell growth, MTT assay; assay type: cell-based; settings: Homo sapiens, A549, 72 h
Procedure: Inhibition of cell growth by compounds was measured using MTT assay (Mosmann, T., Journal of Immunological Methods, 1983, 65, 55-63). Tumor cell lines were purchased from ATCC (American Type Culture Collection, Manassas, Va.). All cell lines were maintained in RPMI 1640 (Hyclone) supplemented with 10% fetal bovine serum (FBS, Hyclone), glutamine (2 mM, Hyclone), and antibiotics (penicillin 100 U/mL and streptomycin 50 μg/mL) at 37° C. in a humidified atmosphere of 5% CO2 in air. Taxol (as a positive control, Sigma) and compounds were dissolved in DMSO (Sigma), and the final concentration of DMSO in the medium was 1%. Tumor cells were plated in 96-well plates at densities of about 4000 cells/well of a 96-well plate and allowed to adhere/grow for 24 h. They were then treated with various concentrations of drug for 72 h. 3-(4,5-Dimethylthiazol-2-yl)-2,5-diphenyltetrazolium bromide (MTT, Sigma) was used to determine the number of viable cells at the time of compound addition and the number of cells remaining after 72 h compound exposure. The number of cells remaining after 72 h was compared to the number of viable cells at the time of compound addition by measuring the absorbance at 570 nm, allowing for the calculation of growth inhibition.
All concentrations of compounds were tested in triplicate and controls were averaged over 4 wells. IC50 was calculated by plotting the concentration of compound vs the percentage of inhibition in treated wells using GraphPad Prism 5. […] The scale utilized in Table 3 is as follows: ++++ less than 20 nM; +++ between 20 nM and 100 nM; ++ between 100 nM and 1000 nM; and + greater than 1000 nM.

First: C[C@]12CC[C@@H](NC(=O)N3CCCC3)C[C@H]1CC[C@@H]1[C@@H]2CC[C@]2(C)[C@@H](c3ccc(=O)oc3)CC[C@]12O [Compound C05, N-((3R,5R,8R,9S,10S,13R,14S,17R)-14-hydroxy-10,13-dimethyl-17-(2-oxo-2H-pyran-5-yl)hexadecahydro-1H-cyclopenta[a]phenanthren-3-yl)pyrrolidine-1-carboxamide]
Second: C[C@]12CC[C@H](NC(=O)N3CCCC3)C[C@H]1CC[C@@H]1[C@@H]2CC[C@]2(C)[C@@H](c3ccc(=O)oc3)CC[C@]12O [Compound C06, N-((3S,5R,8R,9S,10S,13R,14S,17R)-14-hydroxy-10,13-dimethyl-17-(2-oxo-2H-pyran-5-yl)hexadecahydro-1H-cyclopenta[a]phenanthren-3-yl)pyrrolidine-1-carboxamide]
The IC50 of the first is higher: 100 to 1000 nM for the first, under 20 nM for the second.

Compared with `C[C@]12CC[C@@H](NC(=O)NCCO)C[C@H]1CC[C@@H]1[C@@H]2CC[C@]2(C)[C@@H](c3ccc(=O)oc3)CC[C@]12O` [Compound C07, 1-((3R,5R,8R,9S,10S,13R,14S,17R)-14-hydroxy-10,13-dimethyl-17-(2-oxo-2H-pyran-5-yl)hexadecahydro-1H-cyclopenta[a]phenanthren-3-yl)-3-(2-hydroxyethyl)urea], `C[C@]12CC[C@H](NC(=O)NCCO)C[C@H]1CC[C@@H]1[C@@H]2CC[C@]2(C)[C@@H](c3ccc(=O)oc3)CC[C@]12O` [Compound C09, 1-((3S,5R,8R,9S,10S,13R,14S,17R)-14-hydroxy-10,13-dimethyl-17-(2-oxo-2H-pyran-5-yl)hexadecahydro-1H-cyclopenta[a]phenanthren-3-yl)-3-(2-hydroxyethyl)urea] is lower in IC50: 100 to 1000 nM for the first, 20 to 100 nM for the second.

First: C[C@]12CC[C@@H](NC(=O)[C@@H]3CCCN3)C[C@H]1CC[C@@H]1[C@@H]2CC[C@]2(C)[C@@H](c3ccc(=O)oc3)CC[C@]12O [Compound C13, (S)-N-((3R,5R,8R,9S,10S,13R,14S,17R)-14-hydroxy-10,13-dimethyl-17-(2-oxo-2H-pyran-5-yl)hexadecahydro-1H-cyclopenta[a]phenanthren-3-yl)pyrrolidine-2-carboxamide]
Second: C[C@]12CC[C@H](NC(=O)[C@@H]3CCCN3)C[C@H]1CC[C@@H]1[C@@H]2CC[C@]2(C)[C@@H](c3ccc(=O)oc3)CC[C@]12O [Compound C14, (S)-N-((3S,5R,8R,9S,10S,13R,14S,17R)-14-hydroxy-10,13-dimethyl-17-(2-oxo-2H-pyran-5-yl)hexadecahydro-1H-cyclopenta[a]phenanthren-3-yl)pyrrolidine-2-carboxamide]
The IC50 of the first is higher: 100 to 1000 nM for the first, under 20 nM for the second.

Compared with `C[C@]12CCC(N3CCNCC3)C[C@H]1CC[C@@H]1[C@@H]2CC[C@]2(C)[C@@H](c3ccc(=O)oc3)CC[C@]12O` (stereo partly drawn) [Compound C15, 5-((5R,8R,9S,10S,13R,14S,17R)-14-hydroxy-10,13-dimethyl-3-(piperazin-1-yl)hexadecahydro-1H-cyclopenta[a]phenanthren-17-yl)-2H-pyran-2-one], `CN(C(=O)N1CCOCC1)C1CC[C@@]2(C)[C@H](CC[C@@H]3[C@@H]2CC[C@]2(C)[C@@H](c4ccc(=O)oc4)CC[C@]32O)C1` (stereo partly drawn) [Compound C23, N-((5R,8R,9S,10S,13R,14S,17R)-14-hydroxy-10,13-dimethyl-17-(2-oxo-2H-pyran-5-yl)hexadecahydro-1H-cyclopenta[a]phenanthren-3-yl)-N-methylmorpholine-4-carboxamide] is higher in IC50: under 20 nM for the first, 100 to 1000 nM for the second. The first is the more potent here.

`C[C@]12CC[C@H](NS(C)(=O)=O)C[C@H]1CC[C@@H]1[C@@H]2CC[C@]2(C)[C@@H](c3ccc(=O)oc3)CC[C@]12O` [Compound C16, N-((3S,5R,8R,9S,10S,13R,14S,17R)-14-hydroxy-10,13-dimethyl-17-(2-oxo-2H-pyran-5-yl)hexadecahydro-1H-cyclopenta[a]phenanthren-3-yl)methanesulfonamide] and `COC(=O)N[C@H]1CC[C@@]2(C)[C@H](CC[C@@H]3[C@@H]2CC[C@]2(C)[C@@H](c4ccc(=O)oc4)CC[C@]32O)C1` [Compound C17, methyl ((3S,5R,8R,9S,10S,13R,14S,17R)-14-hydroxy-10,13-dimethyl-17-(2-oxo-2H-pyran-5-yl)hexadecahydro-1H-cyclopenta[a]phenanthren-3-yl)carbamate] cannot be ordered by IC50: under 20 nM for the first, under 20 nM for the second.

`COC(=O)N(C)C1CC[C@@]2(C)[C@H](CC[C@@H]3[C@@H]2CC[C@]2(C)[C@@H](c4ccc(=O)oc4)CC[C@]32O)C1` (stereo partly drawn) [Compound C21, methyl ((5R,8R,9S,10S,13R,14S,17R)-14-hydroxy-10,13-dimethyl-17-(2-oxo-2H-pyran-5-yl)hexadecahydro-1H-cyclopenta[a]phenanthren-3-yl)(methyl)carbamate] and `CC(C)[C@@H](N)C(=O)N[C@H]1CC[C@@]2(C)[C@H](CC[C@@H]3[C@@H]2CC[C@]2(C)[C@@H](c4ccc(=O)oc4)CC[C@]32O)C1` [Compound C25, (R)-2-amino-N-((3S,5R,8R,9S,10S,13R,14S,17R)-14-hydroxy-10,13-dimethyl-17-(2-oxo-2H-pyran-5-yl)hexadecahydro-1H-cyclopenta[a]phenanthren-3-yl)-3-methylbutanamide] cannot be ordered by IC50: under 20 nM for the first, under 20 nM for the second.

Molecule `CC(C)[C@@H](N)C(=O)N[C@H]1CC[C@]2(C)[C@H]3CC[C@]4(C)[C@@H](c5ccc(=O)oc5)CC[C@]4(O)[C@@H]3CC[C@]2(O)C1` [Compound C29, (2R)-2-amino-N-((5S,8R,9S,10R,13R,14S,17R)-5,14-dihydroxy-10,13-dimethyl-17-(2-oxo-2H-pyran-5-yl)hexadecahydro-1H-cyclopenta[a]phenanthren-3-yl)-3-methylbutanamide] has an IC50 of under 20 nM.

same assay, conditions: Homo sapiens; A549 cells, 72 h compound exposure, MTT; read-out: IC50

First: C[C@]12CC[C@@H](NC(=O)N3CCOCC3)C[C@H]1CC[C@@H]1[C@@H]2CC[C@]2(C)[C@@H](c3ccc(=O)oc3)CC[C@]12O [Compound C01, N-((3R,5R,8R,9S,10S,13R,14S,17R)-14-hydroxy-10,13-dimethyl-17-(2-oxo-2H-pyran-5-yl)hexadecahydro-1H-cyclopenta[a]phenanthren-3-yl)morpholine-4-carboxamide]
Second: C[C@]12CC[C@@H](NC(=O)N3CCNCC3)C[C@H]1CC[C@@H]1[C@@H]2CC[C@]2(C)[C@@H](c3ccc(=O)oc3)CC[C@]12O [Compound C03, N-((3R,5R,8R,9S,10S,13R,14S,17R)-14-hydroxy-10,13-dimethyl-17-(2-oxo-2H-pyran-5-yl)hexadecahydro-1H-cyclopenta[a]phenanthren-3-yl)piperazine-1-carboxamide]
The IC50 of the first is higher: 100 to 1000 nM for the first, under 20 nM for the second.

Compared with `C[C@]12CC[C@@H](NC(=O)NCCN)C[C@H]1CC[C@@H]1[C@@H]2CC[C@]2(C)[C@@H](c3ccc(=O)oc3)CC[C@]12O` [Compound C08, 1-(2-aminoethyl)-3-((3R,5R,8R,9S,10S,13R,14S,17R)-14-hydroxy-10,13-dimethyl-17-(2-oxo-2H-pyran-5-yl)hexadecahydro-1H-cyclopenta[a]phenanthren-3-yl)urea], `C[C@]12CC[C@@H](NC(=O)CN)C[C@H]1CC[C@@H]1[C@@H]2CC[C@]2(C)[C@@H](c3ccc(=O)oc3)CC[C@]12O` [Compound C11, 2-amino-N-((3R,5R,8R,9S,10S,13R,14S,17R)-14-hydroxy-10,13-dimethyl-17-(2-oxo-2H-pyran-5-yl)hexadecahydro-1H-cyclopenta[a]phenanthren-3-yl)acetamide] is lower in IC50: 100 to 1000 nM for the first, 20 to 100 nM for the second. The second is the more potent here.
